PMC7828111, “In Search for Multi-Target Ligands as Potential Agents for Diabetes Mellitus and Its Complications—A Structure-Activity Relationship Study on Inhibitors of Aldose Reductase and Protein Tyrosine Phosphatase 1B” (Molecules, 2021)
Like-named read-outs stand apart in the source and are kept apart here.

Legend:
human recombinant PTP1B [1] = biological target: T1, human recombinant PTP1B (Homo sapiens, UniProt P18031); set-up: method as in PMID 30342956; conditions: reversible inhibitors; cited from earlier work
T1 sequence (P18031 1-435): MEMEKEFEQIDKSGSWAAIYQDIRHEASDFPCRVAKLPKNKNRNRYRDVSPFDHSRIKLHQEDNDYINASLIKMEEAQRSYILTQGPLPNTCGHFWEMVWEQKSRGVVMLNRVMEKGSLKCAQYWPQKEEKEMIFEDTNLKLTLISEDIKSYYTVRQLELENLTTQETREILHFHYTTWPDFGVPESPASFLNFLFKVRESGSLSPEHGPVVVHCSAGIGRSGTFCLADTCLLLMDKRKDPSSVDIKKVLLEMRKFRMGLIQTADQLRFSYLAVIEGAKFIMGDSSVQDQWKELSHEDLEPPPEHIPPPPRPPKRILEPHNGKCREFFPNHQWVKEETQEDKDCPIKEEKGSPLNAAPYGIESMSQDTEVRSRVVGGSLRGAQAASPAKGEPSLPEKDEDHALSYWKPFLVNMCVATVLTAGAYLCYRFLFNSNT

human recombinant AR [2] = biological target: T2, human recombinant AR (Homo sapiens, UniProt P15121); set-up: method as in PMID 30342956; conditions: reversible inhibitors; cited from earlier work
T2 construct: made in house; host or cells: E. coli BL21(DE3)pLysS

human recombinant AR [3] = biological target: T2, human recombinant AR; assay: Kinetic analysis of AR inhibition (Lineweaver-Burk and secondary plots); assay type: biochemical
Experimental: The kinetic analysis of compounds 4a, 4e and 4f was performed by measuring reaction rates with different L-idose concentrations s (S) in the absence and in the presence of different inhibitors concentrations. Data were analyzed by Linewever-Burk plots.

human recombinant PTP1B [4] = biological target: T1, human recombinant PTP1B; assay: Kinetic analysis of PTP1B inhibition (Lineweaver-Burk plot); assay type: biochemical; conditions: pNPP as substrate
Experimental: Kinetic analyses were carried out to dissect action mechanism of compound 4e and 4f. Briefly, the main kinetic parameters, Km and Vmax, were calculated measuring the initial hydrolysis rate of PTP1B in the presence of increasing pNPP concentration (seven different concentrations in the 0.5–25 mM range). All assays were carried out in duplicate. Data obtained were fitted using the Michaelis-Menten equation. To evaluate the action mechanism of inhibitors, we studied the dependence of Km and Vmax from inhibitors concentration, using three different inhibitor concentrations, at least. Data obtained were then analysed by double reciprocal plot (Lineweaver-Burk plot).

human recombinant PTP1B [5] = biological target: T1, human recombinant PTP1B; assay: Inhibition of human recombinant PTP1B, p-nitrophenyl phosphate as substrate; assay type: biochemical; conditions: human recombinant PTP1B, pNPP as substrate; mean ± S.E.M
Experimental: PTP1B activity was determined as follow. […] After an appropriate interval time, the reaction was stopped diluting assay solution with 2 mL of KOH 0.1 M. The amount of p-nitrophenol released was determined measuring the absorbance of the solution at 400 nm using a spectrophotometer and a 1-cm optical pathlength (εmM of p-nitrophenol is 18). The IC50 value was determined measuring the pNPP hydrolysis rate in the presence of increasing inhibitor concentration. For each inhibitor, 15–16 different concentrations were used. All tests were carried out in triplicate and data obtained were normalized respect to control sample.

human recombinant AR [6] = biological target: T2, human recombinant AR; assay: Inhibition of human recombinant AR, L-idose as substrate (NADPH oxidation at 340 nm); assay type: biochemical; conditions: human recombinant AR, 2 mM L-idose as substrate; mean ± S.E.M
Experimental: The human recombinant AR was expressed in BL21(DE3)pLysS E. coli cells and purified to electrophoretic homogeneity as previously described. The purified enzyme (specific activity 5.0 U/mg) was stored at −80 °C in 10 mM sodium phosphate buffer pH 7.0 containing 2 mM dithiothreitol and 30% (w/v) glycerol. AR activity was determined at 37 °C as previously described evaluating the decrease in absorbance at 340 nm linked to NADPH oxidation. […] One unit of enzyme activity is the amount that catalyzes the conversion of 1 μmol of substrate/min in the above assay conditions.
All compounds tested as aldose reductase inhibitors were dissolved in DMSO and added to the assay mixture containing 8 mU of purified AR. The reaction was started by addition of the substrate. The DMSO concentration in all the assays was kept constant at 0.5% (v/v) in order to avoid effects on AR activity.
The IC50 values were determined by nonlinear regression analysis using Prism GraphPad 6.0 fitting experimental data to the following equation:(1) vi/v0= Max−Min/1+( I/IC50)^slope +Min
In the equation, vi/v0, represents the ratio between the activity measured in the presence of the inhibitor and the activity measured in the absence of inhibitor; Max and Min represent the expected maximal and minimal value of the activity and were fixed at 1 and zero, respectively. Slope, which describes the steepness of curve in the transition region, was fixed at −1. For each compound, at least five different concentrations of inhibitor in the triplicate assay were analyzed.

human recombinant PTP1B [7] = biological target: T1, human recombinant PTP1B; assay: Reversibility assay (dilution test) with PTP1B; assay type: biochemical; conditions: saturating inhibitor, 60 min 37 °C, diluted 400 folds
Experimental: An aliquot of the enzyme was incubated for 60 min at 37 °C in the presence of saturating amount of PTP1B inhibitor. After this time, an aliquot of the enzyme was withdrawn and diluted 400 folds in the assay buffer containing 2.5 mM of pNPP. After 15 min, the reaction was stopped by adding 1 mL of KOH 0.2 M. The amount of pNP released was calculating measuring the absorbance at 400 nm of solutions using a spectrophotometer. Data obtained were normalized respect to control tests, which was carried out diluting the enzyme with DMSO, the solvent used to dissolve all compounds. Data reported in the figure represent the mean value +/− S.E.M. (n = 3).

human recombinant AR [8] = biological target: T2, human recombinant AR; assay: Reversibility of AR inhibition (dialysis); assay type: biochemical
Experimental: In order to evaluate the reversibility of the inhibitory action, 8 mU of purified AR were assayed in the presence of 5 μM of compounds 4a, 4e and 4f. In these conditions less than 15% of the enzyme activity was measured in the presence of 2 mM L-idose as substrate. The mixture was then extensively dialysed on Amicon ultrafiltration membrane (cut off 10 KDa) against 10 mM sodium phosphate buffer, pH 7.0. After dialysis, the enzyme activity was again measured as above and compared to that of a mixture in the absence of inhibitor and treated in the same conditions.

AR Ki relative to K′i (human recombinant AR [3]; Ki higher than K′i) | AR K′i (apparent dissociation constant, EIS complex) (human recombinant AR [3]; L-idose as substrate) | Mechanism of AR inhibition (human recombinant AR [3]; L-idose as substrate) | Ki (human recombinant AR [3]; L-idose as substrate, read-out: AR Ki (apparent dissociation constant)) | Mechanism of PTP1B inhibition (human recombinant PTP1B [4]) | PTP1B K′i (apparent dissociation constant, EIS complex) (human recombinant PTP1B [4]) | Ki (human recombinant PTP1B [4]; read-out: PTP1B Ki (apparent dissociation constant)) | IC50 (human recombinant PTP1B [5]) | melting point | IC50 (human recombinant AR [6]) | Reversibility of PTP1B inhibition (human recombinant PTP1B [7]) | AR enzyme activity recovered after removal of the inhibitor upon extensive dialysis (human recombinant AR [8]; 5 μM compound before dialysis) | AR enzyme activity measured in the presence of compound (human recombinant AR [8]; 5 μM compound, 2 mM L-idose, before dialysis) | SMILES | Mechanism of PTP1B inhibition (human recombinant PTP1B [1]) | Mechanism of AR inhibition (human recombinant AR [2])
 |  |  |  |  |  |  |  |  |  |  |  |  | O=C(O)CN1C(=O)/C(=C/c2cccc(OCCc3ccccc3)c2)SC1=S [2e, (4-oxo-5-{[3-(2-phenylethoxy)pheny]lmethylidene}-2-thioxothiazolidin-3-yl)acetic acid] | non-competitive | uncompetitive
at least ten-fold higher | 0.66 ± 0.30 µM | uncompetitive inhibitors | > 8000 nM | competitive inhibitor | >12 µM | 2200 ± 300 nM | 55500 ± 800 nM | 136 to 138 °C | 2300 ± 100 nM | reversible inhibitors | more than 90% | less than 15% | O=C(O)CCN1C(=O)/C(=C/c2cccc(OCCc3ccccc3)c2)SC1=S [4e, 3-[(5Z)-4-Oxo-{5-[3-(2-phenylethoxy)phenyl]methylidene}-2-thioxothiazolidin-3-yl]propanoic acid] |  | 
 |  |  |  |  |  |  |  |  |  |  |  |  | O=C(O)CN1C(=O)S/C(=C\c2cccc(OCCc3ccccc3)c2)C1=O [1e] | non-competitive | uncompetitive
